# Measurements from US4910214A, “Optical isomer of an imidazole derivative medetomidine as an alpha-2-receptor agonist” (Farmos Yhtyma Oy, priority 1987, dated 1990).
# Where two headings read alike, the source gives them in different places.
# Experiments:
# [1] = target: T1, presynaptic α2 -adrenoceptors (Mus musculus, UniProt Q01338); assay: α2-agonism in vitro, isolated electrically stimulated mouse vas deferens; format: cell-based; conditions: for EC50: negative log of molar concentration producing 50 percent of maximal inhibition of electrically induced contractions, read-out: α2 -agonism in vitro (mouse vas deferens). pD2 (converted)
# T1 construct: isolated, electrically stimulated mouse was deferens preparation; from tissue; host or cells: mouse vas deferens
# T1 sequence (Q01338 1-465): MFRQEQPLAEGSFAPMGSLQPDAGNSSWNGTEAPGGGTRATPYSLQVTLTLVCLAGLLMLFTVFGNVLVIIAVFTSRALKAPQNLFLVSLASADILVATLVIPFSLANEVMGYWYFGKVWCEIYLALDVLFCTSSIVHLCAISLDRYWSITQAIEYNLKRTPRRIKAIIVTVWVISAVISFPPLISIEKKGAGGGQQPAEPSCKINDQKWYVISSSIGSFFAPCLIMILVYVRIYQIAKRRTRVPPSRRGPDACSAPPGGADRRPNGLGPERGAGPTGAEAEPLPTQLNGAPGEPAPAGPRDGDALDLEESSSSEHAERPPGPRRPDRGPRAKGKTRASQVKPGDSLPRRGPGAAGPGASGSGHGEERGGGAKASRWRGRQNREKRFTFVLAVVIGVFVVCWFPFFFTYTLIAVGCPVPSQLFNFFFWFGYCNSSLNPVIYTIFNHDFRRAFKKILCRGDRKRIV
# Protocol: α2 -agonism was determined by means of isolated, electrically stimulated mouse was deferens preparation (Marshall et al., Br. J. Pharmac. 62, 147-151, 1978). […] Results are shown in Table 1, where the α2 -agonist effect is presented as the pD2 -value (negative logarith of the molar concentration of the compound producing 50 percent of maximal inhibition.)
# α2 -receptors [2] = target: T2, α2 -receptors (Rattus norvegicus, UniProt P22909); assay: biochemical; format: binding
# T2 construct: from tissue; host or cells: rat brain membranes
# T2 sequence (P22909 1-465): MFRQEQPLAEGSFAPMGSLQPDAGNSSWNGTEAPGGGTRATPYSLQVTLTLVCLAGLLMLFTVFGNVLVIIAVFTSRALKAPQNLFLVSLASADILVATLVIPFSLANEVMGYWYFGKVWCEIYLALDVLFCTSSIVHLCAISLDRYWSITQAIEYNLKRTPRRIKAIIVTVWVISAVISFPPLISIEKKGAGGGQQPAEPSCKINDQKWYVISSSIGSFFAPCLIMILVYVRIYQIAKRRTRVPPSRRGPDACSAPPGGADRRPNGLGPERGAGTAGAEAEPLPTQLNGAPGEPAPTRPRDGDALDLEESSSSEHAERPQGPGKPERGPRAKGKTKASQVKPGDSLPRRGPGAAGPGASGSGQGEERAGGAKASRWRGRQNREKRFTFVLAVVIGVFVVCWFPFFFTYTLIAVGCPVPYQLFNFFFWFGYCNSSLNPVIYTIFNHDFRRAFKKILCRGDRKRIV
# Source text: (§1) The selectivity of the d-enantiomer as an α2 -agonist was studied in receptor binding experiments using rat brain membranes. […] 108, 163-9, 1985.
# mice [3] = assay: Acetic acid-induced writhing test; format: in vivo; conditions: Mus musculus, sc, 45 min before 1% acetic acid i.p.; writhes counted 25 min
# Protocol: The sedative-analgesic properties of the compounds were studied in the spontaneous motility and writhing-test in the mouse. Spontaneous motility of mice and rats was measured using the Animex-activity meter. The test compounds were administered i.p. 30 minutes before the measuring periods of two minutes. In the writhing test the compounds studied and saline were administered s.c. to […], and 45 min. later 1 ml of 1% acetic acid was administered i.p. The number of writhes was recorded in the following 25 min. period (Koster et al., Fred. Proc. 18: 412, 1959).
# mice [4] = assay: Spontaneous motility (Animex-activity meter); format: in vivo; conditions: Mus musculus, sc, 0.5 h; s.c.; 30 minutes before two-minute measuring period; read-out: ED50 in reducing spontaneous motility in mice
# α2 -receptors [5] = assay: biochemical; format: binding, rat; conditions: ratio of 3H-prazosin IC50 to 3H-clonidine IC50
# Source text: as §1
# α1 -receptors = assay: 3H-prazosin displacement, receptor binding in rat brain membranes
# Source text: as §1
# Sprague-Dawley rats = conditions: anesthetized rats; for Decrease in BP / Decrease in heart rate: femoral vein
# Protocol: After this, the femoral artery was connected by a polyethylene tube to a blood pressure transducer. The test substance was then injected into the femoral vein and the blood pressure and the pulse frequency were registered with a recorder.
# rat [6] = assay: Elevated t-maze test, exploration of open and enclosed arms (anxiolytic effects); format: in vivo; conditions: for Mean number of entries, closed / Mean number of entries, open / Mean number of entries, total / open/total entries: 5 minutes, n = 6
# Protocol: The anxiolytic effects of the compounds were studied using a method described by Handley and Mithoni: Naunyn-Schmiedeb, Arch. Pharmacol. 327, 1-5, 1984. In this test the manner of exploration of open and enclosed arms in an elevated t-maze by a rat is examined. It has been shown that anxiolytic drugs increase the relative exploration of open arms. A rat is placed in the center of the t-maze and the number of open and enclosed entries is recorded during 5 minutes.
# rat [7] = conditions: for CSF MHPG-SO4 (% of control): 4 h after adm.
# Source text: It is well known that anxiety states connected to withdrawal symptoms are due to noradrenergic hyperactivity.
smiles,measurement,setting,value
Cc1cccc(Cc2c[nH]cn2)c1C [detomidine],EC50,[1],3.16 nM
same,IC50,α2 -receptors [2],3.7 nM
same,ED50,mice [3],0.02 mg/kg
same,ED50,mice [4],0.3 mg/kg
Cc1cccc(C(C)c2cnc[nH]2)c1C (racemic) [medetomidine],EC50,[1],1 nM
same,α2 /α1 -selectivity,α2 -receptors [5],5060
same,IC50,α2 -receptors [2],3.3 nM
same,ED50,mice [3],0.02 mg/kg
same,IC50,α1 -receptors,16700 nM
same,ED50,mice [4],0.05 mg/kg
Cc1cccc([C@@H](C)c2cnc[nH]2)c1C [1-enantiomer],EC50,[1],1000 nM
same,type of agonism (mouse vas deferens),[1]; remark in pD2 cell,partial agonist
same,α2 /α1 -selectivity,α2 -receptors [5],4129
same,IC50,α2 -receptors [2],46 nM
same,ED50,mice [3],> 10 mg/kg
same,IC50,α1 -receptors,190000 nM
same,ED50,mice [4],> 10 mg/kg
"Clc1cccc(Cl)c1N=C1NCCN1 [clonidine, reference compound]",EC50,[1],3.16 nM
same,ED50,mice [3],0.03 mg/kg
same,IC50,α1 -receptors,6200 nM
same,ED50,mice [4],0.3 mg/kg
Cc1cccc([C@H](C)c2cnc[nH]2)c1C [d-enantiomer],EC50,[1],0.501 nM
same,effect on blood pressure and heart rate (in words),Sprague-Dawley rats; summary of Table 7,clear anti-hypertensive and bradycardia effects
same,Decrease in BP,Sprague-Dawley rats; dose 0.001 mg/kg,-8%
same,Decrease in heart rate,Sprague-Dawley rats; dose 0.001 mg/kg,-21%
same,Decrease in BP,Sprague-Dawley rats; dose 0.003 mg/kg,-23%
same,Decrease in heart rate,Sprague-Dawley rats; dose 0.003 mg/kg,-40%
same,Decrease in BP,Sprague-Dawley rats; dose 0.01 mg/kg,-43%
same,Decrease in heart rate,Sprague-Dawley rats; dose 0.01 mg/kg,-47%
same,Decrease in BP,Sprague-Dawley rats; dose 0.03 mg/kg,-45%
same,Decrease in heart rate,Sprague-Dawley rats; dose 0.03 mg/kg,-48%
same,Decrease in BP,Sprague-Dawley rats; dose 0.1 mg/kg,-45%
same,Decrease in heart rate,Sprague-Dawley rats; dose 0.1 mg/kg,-50%
same,"Mean number of entries, closed",rat [6]; dose 0.0003 mg/kg,10.6
same,"Mean number of entries, open",rat [6]; dose 0.0003 mg/kg,4.8
same,"Mean number of entries, total",rat [6]; dose 0.0003 mg/kg,14.0
same,open/total entries,rat [6]; dose 0.0003 mg/kg,0.20
same,"Mean number of entries, closed",rat [6]; dose 0.001 mg/kg,10.6
same,"Mean number of entries, open",rat [6]; dose 0.001 mg/kg,3.2
same,"Mean number of entries, total",rat [6]; dose 0.001 mg/kg,13.8
same,open/total entries,rat [6]; dose 0.001 mg/kg,0.23
same,"Mean number of entries, closed",rat [6]; dose 0.003 mg/kg,9.5
same,"Mean number of entries, open",rat [6]; dose 0.003 mg/kg,4.0
same,"Mean number of entries, total",rat [6]; dose 0.003 mg/kg,13.5
same,open/total entries,rat [6]; dose 0.003 mg/kg,0.29
same,"Mean number of entries, closed",rat [6]; dose 0.01 mg/kg,8.8
same,"Mean number of entries, open",rat [6]; dose 0.01 mg/kg,5.8
same,"Mean number of entries, total",rat [6]; dose 0.01 mg/kg,14.6
same,open/total entries,rat [6]; dose 0.01 mg/kg,0.39
same,"Mean number of entries, closed",rat [6]; dose 0.03 mg/kg,3.0
same,"Mean number of entries, open",rat [6]; dose 0.03 mg/kg,2.5
same,"Mean number of entries, total",rat [6]; dose 0.03 mg/kg,5.5
same,open/total entries,rat [6]; dose 0.03 mg/kg,0.45
same,anxiolytic effect in the elevated t-maze test (in words),rat [6]; summary of Table 5,anxiolytic profile
same,α2 /α1 -selectivity,α2 -receptors [5],45849
same,IC50,α2 -receptors [2],1.2 nM
same,effect on noradrenaline release (in words),rat [7]; central and peripheral nervous systems,able to reduce noradrenaline release
same,CSF MHPG-SO4 (% of control),rat [7]; dose 3 μg/kg,-10 % of control
same,CSF MHPG-SO4 (% of control),rat [7]; dose 10 μg/kg,-20 % of control
same,CSF MHPG-SO4 (% of control),rat [7]; dose 30 μg/kg,-30 % of control
same,CSF MHPG-SO4 (% of control),rat [7]; dose 100 μg/kg,-65 % of control
same,ED50,mice [3],0.01 mg/kg
same,IC50,α1 -receptors,55000 nM
same,ED50,mice [4],0.02 mg/kg
"CN1C(=O)CN=C(c2ccccc2)c2cc(Cl)ccc21 [diazepam, reference compound]","Mean number of entries, closed",rat [6]; dose 1 mg/kg,10.5
same,"Mean number of entries, open",rat [6]; dose 1 mg/kg,5.2
same,"Mean number of entries, total",rat [6]; dose 1 mg/kg,15.7
same,open/total entries,rat [6]; dose 1 mg/kg,0.33
